Measured values published in PubChem BioAssay AID1963597 (National Center for Advancing Translational Sciences (NCATS), 2024).
Non-standard residues stand in square brackets, D forms with d. Residues, ends and D or L forms follow the SMILES beside them. *: point of attachment. Sta = CC(C)C[C@H](N)[C@@H](O)CC(=O)O; Isovaleryl = CC(C)CC(=O)*; Hexanoyl = CCCCCC(=O)*

tested on: human liver microsomes, metabolic stability half-life; test: NCATS Human Liver Microsomal (HLM) Stability Profiling; conditions: higher = more stable; screened at 1 µM (by protocol)
Method in brief: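 Half-life derived from parent loss over 0–60 min (0, 5, 10, 15, 30, 60 min) at 37 °C. Incubations: 0.5 mg/mL microsomes, 1 µM test article, NADPH regeneration, pH 7.4 phosphate; quenched in acetonitrile containing albendazole, analysed by MS.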

First: CN(C)[S+](=O)([O-])c1ccc([S+](=O)([O-])N(Cc2ccccc2)Cc2ccccn2)cc1
Second: Cc1nn(CC(=O)NCCc2ccccc2)c(=O)c2c1sc1ccccc12
The half-life of the first is 1.6-fold lower: 4.28 min for the first, 6.82 min for the second.

Going from `CC(C)(C)C(=O)OCOP(=O)(COCCn1cnc2c(N)ncnc21)OCOC(=O)C(C)(C)C` to `CCOc1ncc(S(=O)(=O)N2CCN(CC)CC2)cc1-c1nc2c(CC)n(CCOC)nc2c(=O)[nH]1`, the half-life rises from 3.13 min to 76.2 min (24-fold).

First: COCc1c(Cl)ccc2c1CC[C@H]2c1ncc[nH]1
Second: c1ccc(C2CC2)c(OCC2=NCCN2)c1
The half-life of the first is lower: 115 min for the first, greater than 120 min for the second.

Going from `CCCCC(CC)CN=C(N)NC(N)=NCCCCCCN=C(N)NC(N)=NCC(CC)CCCC` (stereo not drawn) to `CCCCCC(=O)N1CCC[C@H]1C(=O)N[C@@H](Cc1ccc(O)cc1)C(=O)OC` (Hexanoyl-Pro-Tyr-OMe), the half-life falls from greater than 120 min to 7.74 min.

First: COc1ccc2c(c1)CCCC2=O
Second: COc1cc(C=O)ccc1O
The half-life of the first is 5.5-fold lower: 17.6 min for the first, 97.1 min for the second.

First: O=c1[nH]c2ccc(Cl)cc2c(N[C@@H]2CN3CCC2CC3)c1-c1nc2ccccc2[nH]1
Second: O=C(Cn1ncc2c([nH]c3ccccc32)c1=O)NCCCN1CCN(c2ccccc2)CC1
The half-life of the first is lower: 18.8 min for the first, greater than 120 min for the second.

Going from `Fc1ccccc1-c1nc2ccn(Cc3ccc(-c4ccc(C(F)(F)F)cc4C(F)(F)F)nn3)cc-2n1` to `O=C(N[C@H]1CCN(C(=O)c2cc(C(F)(F)F)cc(C(F)(F)F)c2)[C@H](Cc2ccc(Cl)cc2)C1)c1ccnc2ccccc12`, the half-life falls from greater than 120 min to 49.2 min.

Going from `Cn1cc(-c2[nH]c3cc(NC(=O)[C@H](N)C4CCCCC4)cc4c3c2C=NNC4=O)cn1` to `O=C(CSc1nnc(-c2cccc(F)c2)c(-c2cccc(F)c2)n1)NC1CCCCC1`, the half-life falls from 102 min to 10.8 min (9.4-fold).

`COc1ccc(CNc2nc(N(CCO)CCO)nc3c2ncn3C(C)C)cc1` and `CC(C)c1nn(-c2c(Cl)cccc2Cl)c2nc(Cc3ccc(OCCO)cc3)[nH]c(=O)c12` are within 1.5-fold of each other in half-life: 35.6 min for the first, 32.2 min for the second.

Compared with `Nc1ccc2cc3ccc(N)cc3nc2c1`, `O=c1cc(-c2ccc(O)cc2)oc2cc(O)cc(O)c12` is 5.6-fold lower in half-life: 105 min for the first, 18.8 min for the second.

First: CN(C)CCN1C(=O)c2ccccc2N(C)c2ccccc21
Second: CNCC[C@@H](Oc1ccccc1C)c1ccccc1
The half-life of the first is higher: greater than 120 min for the first, 23.9 min for the second.

Compared with `N#Cc1ccc(-c2ccc(S(=O)(=O)Nc3cccc(N)n3)cc2)cc1`, `COc1ccc(-c2oc3cc(OC)ccc3c2C(=O)c2ccc(C#N)cc2)cc1` is lower in half-life: greater than 120 min for the first, 20.6 min for the second.

First: COc1ccc(-c2ccn(CC[C@](C)(C(=O)NO)S(C)(=O)=O)c(=O)c2)c(F)c1
Second: CN1c2cc(C(=O)Nc3ccc(S(N)(=O)=O)cc3)ccc2C(=O)N2CCCCC21 (stereo not drawn)
The half-life of the first is higher: greater than 120 min for the first, 32.8 min for the second.

Going from `CCOC(=O)c1ccc(O)cc1` to `Cc1ccc(NC(=O)c2cccc(N(C)C)c2)cc1NC(=O)c1ccc(O)cc1`, the half-life falls from 61 min to 18.9 min (3.2-fold).

Going from `COc1cnc(-c2ccc(Cn3c(CC(C)(C)C(=O)O)c(SC(C)(C)C)c4cc(OC[C@@H]5Cc6ccccc6N5C(C)=O)ccc43)cc2)nc1` to `NC(=O)c1ccc(Cc2c(-c3cccc(-c4ccccc4)c3)[nH]n(-c3nc(C(=O)O)cs3)c2=O)cc1`, the half-life rises from 12.1 min to greater than 120 min.

Going from `CCCCN(CCCC)CCC(O)c1cc2c(Cl)cc(Cl)cc2c2cc(C(F)(F)F)ccc12` (stereo not drawn) to `CCCCN(CCCC)C(=O)CN1C[C@H](c2ccc3c(c2)OCO3)[C@@H](C(=O)O)[C@@H]1c1ccc(OC)cc1`, the half-life rises from 29.5 min to 72.6 min (2.5-fold).

Compared with `Cc1cc2c(cc1S(N)(=O)=O)S(=O)(=O)CCC2`, `NS(=O)(=O)c1cc2c(cc1Cl)NC(CSCc1ccccc1)=NS2(=O)=O` is lower in half-life: greater than 120 min for the first, 29.2 min for the second.

Going from `C=C1C(=O)O[C@@H]2[C@H]3O[C@]3(C)CC/C=C(\C)CC[C@@H]12` to `Cc1coc2c1C(=O)C(=O)c1c-2ccc2c1CCCC2(C)C`, the half-life falls from greater than 120 min to 5.39 min.

First: CN1CCN(C(=O)c2ccc3nccn3c2)CC1
Second: CN1CCN(C(=O)c2ccc(Nc3nccc(-c4cccs4)n3)cc2Cl)CC1
The half-life of the first is higher: greater than 120 min for the first, 19.2 min for the second.

Compared with `Cc1ccccc1C(C(=O)NC1CCCCC1)N(C(=O)CNc1ccc(C#N)cc1)c1cccc(F)c1` (stereo not drawn), `CN1c2cc(C(=O)Nc3ccc(C#N)cc3)ccc2C(=O)N2CCCCC21` (stereo not drawn) is 17-fold higher in half-life: 2.58 min for the first, 44.3 min for the second.

`COc1ccc(CCNC(=O)CCc2c(C)c3cc4c(C)coc4cc3oc2=O)cc1` and `CCc1nn(C)c(C(=O)NCc2ccc(Oc3ccc(C)cc3)cc2)c1Cl` are within 1.5-fold of each other in half-life: 5.41 min for the first, 7.51 min for the second.

First: CC(=O)c1ccc(N2CCN(c3ncnc4c3cnn4C)CC2)cc1
Second: Cc1ccc(N2CCN(C(=O)C3CCN(c4ncnc5c4nc4n5CCCCC4)CC3)CC2)c(C)c1
The half-life of the first is lower: 109 min for the first, greater than 120 min for the second.

Going from `Cc1ccc(-c2ccccc2C#N)cc1` to `Cc1ccc(-c2cc3ncc(C(=O)c4cc([N+](=O)[O-])ccc4O)cn3n2)cc1`, the half-life rises from 1 min to 4.91 min (4.9-fold).

`CC(C)CCCC(C)N` (stereo not drawn) and `CCC[C@H](N[C@@H](C)C(=O)N1[C@H](C(=O)O)C[C@@H]2CCCC[C@@H]21)C(=O)OCC` cannot be ordered by half-life: greater than 120 min for the first, greater than 120 min for the second.

Compared with `CNS(=O)(=O)c1ccc(Cc2c(-c3cccc(-c4ccccc4)c3)[nH]n(-c3nc(C(=O)O)cs3)c2=O)cc1`, `N#Cc1cccc(C(=O)Nc2cc(-c3ccccc3)nn2-c2ccccc2)c1` is lower in half-life: greater than 120 min for the first, 18.7 min for the second.

First: CC1(COc2ccc3c(c2)ncn3-c2ccc3cccc(N4CCC(N)CC4)c3n2)COC1
Second: Cc1c(NC(=O)c2ccc(N3CCC(C)CC3)c([N+](=O)[O-])c2)cccc1-c1nc2ccccc2o1
The half-life of the first is 2.5-fold higher: 75.4 min for the first, 30.7 min for the second.

Going from `Nc1ncnc2c1ncn2[C@H]1O[C@@H](C(=O)N2CCN(CC(=O)Nc3cccc4c3CNC4=O)CC2)[C@H](O)[C@@H]1O` to `Cn1c(=O)c2c(nc(CN3CCN(C(=O)C4CC4)CC3)n2Cc2ccccc2Cl)n(C)c1=O`, the half-life falls from greater than 120 min to 24.1 min.

First: NC1(c2ccc(-c3nc4ccn5c(=O)[nH]nc5c4cc3-c3ccccc3)cc2)CCC1
Second: O=C(Cc1ccc(-c2ccccc2)cc1)NC1CCC1
The half-life of the first is 55-fold higher: 83 min for the first, 1.5 min for the second.

`O=c1[nH]c(=O)n([C@H]2C[C@H](O)[C@@H](CO)O2)cc1C(F)(F)F` and `CCCCCOC(=O)Nc1nc(=O)n([C@@H]2O[C@H](C)[C@@H](O)[C@H]2O)cc1F` cannot be ordered by half-life: greater than 120 min for the first, greater than 120 min for the second.

Compared with `Cn1ncc(Cl)c1-c1cc(C(=O)NC(CN)Cc2ccc(F)c(F)c2)oc1Cl` (stereo not drawn), `Cc1csc(NC(=O)c2ccc(COc3cccc(Cl)c3)o2)n1` is lower in half-life: greater than 120 min for the first, 14.9 min for the second.

Going from `Cn1cnc2c1c(=O)[nH]c(=O)n2C` to `CCC(CC)n1ccc2c(C(=O)NCc3c(C)cc(C)[nH]c3=O)cc(C#N)cc21`, the half-life falls from 60.4 min to 3.94 min (15-fold).

Going from `CN(C)CCN(Cc1cccs1)c1ccccn1` to `CCN(Cc1ccncc1)C(=O)[C@@H](CO)c1ccccc1`, the half-life rises from 23.8 min to greater than 120 min.

First: CC(=O)OCC(=O)[C@@]12OC(C)(C)O[C@@H]1C[C@H]1[C@@H]3C[C@H](F)C4=CC(=O)C=C[C@]4(C)[C@@]3(F)[C@@H](O)C[C@@]12C
Second: Cc1oc(=O)oc1COC(=O)[C@@H]1N2C(=O)[C@@H](NC(=O)[C@H](N)c3ccccc3)[C@H]2SC1(C)C
The half-life of the first is 3.6-fold higher: 44.3 min for the first, 12.2 min for the second.

Compared with `Cc1ccc(-c2nc3ccc(C)cn3c2CC(=O)N(C)C)cc1`, `CCOC(=O)Cn1cccc1-c1nc(-c2ccc(OC)cc2)c(-c2ccc(OC)cc2)s1` is lower in half-life: greater than 120 min for the first, 0.96 min for the second.

`Cc1cc(C(C)Nc2ccccc2)c2nc(N3CCOCC3)cc(=O)n2c1` (stereo not drawn) and `Cc1ccc(C)c(N2CCN(CCCNC(=O)c3ccc4nc(C(C)C)oc4c3)CC2)c1` are within 1.5-fold of each other in half-life: 17.2 min for the first, 13.8 min for the second.

`CCN1CCCC1CNC(=O)C(O)(c1ccccc1)c1ccccc1` (stereo not drawn) and `O=C(O)c1ccc(CN2CCC(CN[C@@H]3C[C@H]3c3ccccc3)CC2)cc1` cannot be ordered by half-life: greater than 120 min for the first, greater than 120 min for the second.

Going from `N#Cc1cccc(CN2CC(COc3ccccc3)C3(C2)CN(c2ccccc2)C3)c1` (stereo not drawn) to `O=C(O)C1CN(Cc2ccc(-c3nc4cc(Cc5ccccc5F)ccc4s3)c(F)c2)C1`, the half-life rises from 3.65 min to greater than 120 min.

Going from `Oc1ccc(-c2cnc3ccc(NCc4ccco4)nn23)cc1` to `Cc1ccc(O)cc1Nc1ccnc(Nc2cccc(C(N)=O)c2)n1`, the half-life rises from 9.45 min to 86.5 min (9.2-fold).

Compared with `CC[C@H](C)C(=O)O[C@H]1C[C@@H](C)C=C2C=C[C@H](C)[C@H](CC[C@@H]3C[C@@H](O)CC(=O)O3)[C@H]21`, `CCN(CC)C(=O)C1CN2CCc3cc(OC)c(OC)cc3C2CC1OC(C)=O` (stereo not drawn) is higher in half-life: 7.05 min for the first, greater than 120 min for the second.

Compared with `CCC(CC)Nc1nc(C)c(-c2ccc(OC(F)(F)F)cc2OC)nc1OC`, `COc1cc(Nc2ncc3c(n2)-c2ccc(Cl)cc2C(c2c(F)cccc2OC)=NC3)ccc1C(=O)O` is higher in half-life: 20.5 min for the first, greater than 120 min for the second.

First: CCOP(=S)(OCC)Oc1nc(Cl)c(Cl)cc1Cl
Second: CCN1CCC[C@H]1CNC(=O)c1c(O)c(Cl)cc(Cl)c1OC
The half-life of the first is lower: 1.81 min for the first, greater than 120 min for the second.

Going from `CC(Cc1ccc2c(c1)OCO2)NCC(O)c1ccc(O)c(O)c1` (stereo not drawn) to `COc1ccccc1Cn1cc(C(=O)c2ccc(Cl)cc2)c(=O)c2cc3c(cc21)OCCO3`, the half-life rises from 18.6 min to 40.8 min (2.2-fold).

Compared with `COc1ccc(CN2CCN(C(c3ccc(F)cc3)c3ccc(F)cc3)CC2)c(OC)c1OC`, `CS(=O)(=O)c1cccc(CNc2nc(Nc3ccc4c(c3)CCC(=O)N4)ncc2C(F)(F)F)c1` is higher in half-life: 13.1 min for the first, greater than 120 min for the second.

Going from `NC(N)=NS(=O)(=O)c1ccc(N)cc1` to `O=C(Nc1ccnc(NC(=O)C2CC2)c1)c1c(Cl)cccc1Cl`, the half-life rises from 78.3 min to greater than 120 min.

Compared with `CCC1(O)CC2c3cc(OC)c(OC)cc3CCN2CC1CC(C)C` (stereo not drawn), `CC(C)CN1C(=O)c2cccn2CC1C(=O)N1CCN(C)CC1` (stereo not drawn) is lower in half-life: greater than 120 min for the first, 62.8 min for the second.

`C=CC1=C(C(=O)O)N2C(=O)[C@@H](NC(=O)/C(=N\OCC(=O)O)c3csc(N)n3)[C@H]2SC1` and `O=C(O)Cn1nnc(-c2cc(N3CCC(Oc4cc(F)ccc4Br)CC3)no2)n1` cannot be ordered by half-life: greater than 120 min for the first, greater than 120 min for the second.

First: COCCCNC(=O)CCC(=O)NNc1nc2ccccc2c2nc(-c3ccccc3)nn12
Second: O=C(CCNc1c(-c2ccccc2)nc2cnccn12)N1CCCC1
The half-life of the first is higher: greater than 120 min for the first, 7.99 min for the second.

Going from `FC(F)(F)c1ccccc1-c1cc(C(F)(F)F)c2nc(C3=NOC4(CCCCC4)C3)[nH]c2c1` to `CC(C)(C)NCC(O)COc1ccc(NC(=O)NC2CCCCC2)cc1` (stereo not drawn), the half-life rises from 67.7 min to greater than 120 min.

`CCN(CC)C(C)C(=O)c1ccccc1` (stereo not drawn) and `CC(C)CC(=O)N[C@H](C(=O)N[C@H](C(=O)N[C@@H](CC(C)C)[C@@H](O)CC(=O)N[C@@H](C)C(=O)N[C@@H](CC(C)C)[C@@H](O)CC(=O)O)C(C)C)C(C)C` (Isovaleryl-VV[Sta]A[Sta]-OH) cannot be ordered by half-life: greater than 120 min for the first, greater than 120 min for the second.
